One series deals with NRK. Nature of the series: Cytotoxicity against rat NRK cells assessed as cell viability at 50 uM incubated for 48 hrs by MTT assay. In kind it is toxicity, cell-based. For orientation: Tetrazolium assays rely on reduction of a dye to a coloured formazan, in cell work by metabolically active cells.
Series [1] can be described thus: Cytotoxicity against human MIHA cells assessed as cell viability at 50 uM incubated for 48 hrs by MTT assay. In kind it is toxicity, cell-based.
A short description of series [2]: Cytotoxicity against human PDL cells assessed as cell viability at 50 uM incubated for 48 hrs by MTT assay. In kind it is toxicity, cell-based.
The test system of a further series is KGN. In words: Protective effect against cisplatin-induced injury in human KGN cells assessed as cell survival at 5 uM incubated for 48 hrs by MTT assay. In kind it is functional, cell-based.

The source of these data is ChEMBL document CHEMBL5584293, “Discovery and evaluation of novel spiroheterocyclic protective agents via a SIRT1 upregulation mechanism in cisplatin-induced premature ovarian failure” (Bioorg Med Chem, 2024).

The structures appear in SMILES notation. Active and inactive are the calls of the source. The rule behind the calls is not given here.

`CN1C[C@H](c2ccccc2)C2(CN(C(=O)OC(C)(C)C)C/C(=C\c3ccccc3)C2=O)[C@]12C(=O)c1cccc3cccc2c13` (single isomer, unassigned): the Activity result (with NRK; in series [1]; in series [2]) was “Non-Toxic” in each case. On to `CC1N[C@@]2(C(=O)c3cccc4cccc2c34)[C@@]2(CCC/C(=C\c3ccc(O)cc3)C2=O)[C@H]1c1ccc(O)cc1` (some centres not stated), for which the result in the series on KGN was inactive.

Turning to `CN1C[C@H](c2ccccc2)[C@]2(COC/C(=C\c3ccccc3)C2=O)[C@]12C(=O)Nc1ccc(Cl)cc12`, the Activity entry (in the series with NRK; in series [1]; in series [2]) was “Non-Toxic” throughout. In the case of `COc1cc(/C=C2\CCC[C@@]3(C2=O)[C@@H](c2ccc(O)c(OC)c2)C(C)N[C@@]32C(=O)c3cccc4cccc2c34)ccc1O` (some centres not stated), in the series on KGN, the result was inactive. Take `CN1C[C@H](c2ccccc2)[C@]2(COC/C(=C\c3ccccc3)C2=O)[C@]12C(=O)Nc1ccccc12`: the Activity entry (in the series with NRK; in series [1]; in series [2]) was “Non-Toxic” throughout. With `O=C1c2cccc3cccc(c23)[C@]12NC(Cc1ccccc1)[C@H](c1ccccc1)[C@]21CCC/C(=C\c2ccccc2)C1=O` (some centres not stated), in the series on KGN, the outcome was Active. Same read-out and setting: with `CC1N[C@@]2(C(=O)c3cccc4cccc2c34)[C@@]2(CCC/C(=C\c3ccc(Cl)cc3Cl)C2=O)[C@H]1c1ccc(Cl)cc1Cl` (some centres not stated) the entry was “inactive”; with `CC1N[C@@]2(C(=O)c3cccc4cccc2c34)[C@@]2(CCC/C(=C\c3ccc(Cl)c(Cl)c3)C2=O)[C@H]1c1ccc(Cl)c(Cl)c1` (some centres not stated), “inactive”.

`CN1C[C@H](c2ccccc2)[C@]2(CCC/C(=C\c3ccccc3)C2=O)[C@]12C(=O)Nc1ccccc12`: the Activity entry (in the series on NRK; in series [1]; in series [2]) was “Non-Toxic” in each case. As for `CC(O)C1N[C@@]2(C(=O)c3cccc4cccc2c34)[C@@]2(CCC/C(=C\c3ccccc3)C2=O)[C@H]1c1ccccc1` (some centres not stated), the result with KGN was Active. Still for that read-out and setting: with `N=C(N)NCCCC1N[C@@]2(C(=O)c3cccc4cccc2c34)[C@@]2(CCC/C(=C\c3ccccc3)C2=O)[C@H]1c1ccccc1` (some centres not stated) the entry was “inactive”.

With `O=C1c2cccc3cccc(c23)[C@]12NC(Cc1c[nH]cn1)[C@H](c1ccccc1)[C@]21CCC/C(=C\c2ccccc2)C1=O` (some centres not stated), the outcome in the series with KGN was inactive. Still for that read-out and setting: next, `NC(=O)CCC1N[C@@]2(C(=O)c3cccc4cccc2c34)[C@@]2(CCC/C(=C\c3ccccc3)C2=O)[C@H]1c1ccccc1` (some centres not stated): “inactive”.

With `CC1N[C@@]2(C(=O)c3cccc4cccc2c34)[C@@]2(CCC/C(=C\c3cc(F)cc(F)c3)C2=O)[C@H]1c1cc(F)cc(F)c1` (some centres not stated), the result in the series with KGN was inactive. Still for that read-out and setting: next, `O=C1c2cccc3cccc(c23)[C@]12NC(Cc1ccc(O)cc1)[C@H](c1ccccc1)[C@]21CCC/C(=C\c2ccccc2)C1=O` (some centres not stated): “inactive”. As for `CN1C[C@H](c2ccccc2)[C@H](C(=O)/C=C/c2ccccc2)[C@]12C(=O)Nc1ccc(Cl)cc12`, the Activity entry (with NRK; in series [1]; in series [2]) was “Toxic” each time. Regarding `CC(C)C1N[C@@]2(C(=O)c3cccc4cccc2c34)[C@@]2(CCC/C(=C\c3ccccc3)C2=O)[C@H]1c1ccccc1` (some centres not stated), the result in the series with KGN was inactive.

Consider `CN1C[C@H](c2ccccc2)[C@H](C(=O)/C=C/c2ccccc2)[C@]12C(=O)Nc1ccc(F)cc12`, for which the Activity entry (in the series with NRK; in series [1]; in series [2]) was “Toxic” throughout. Turning to `CN1C[C@H](c2ccccc2)[C@]2(CCC/C(=C\c3ccccc3)C2=O)[C@]12C(=O)Nc1ccc(Cl)cc12`, the Activity entry (in the series with NRK; in series [1]; in series [2]) was “Non-Toxic” in each case. On to `CN1C[C@H](c2ccccc2)[C@]2(CN(C(=O)OC(C)(C)C)C/C(=C\c3ccccc3)C2=O)[C@]12C(=O)Nc1ccc(Cl)cc12`, for which the Activity entry (with NRK; in series [1]; in series [2]) was “Non-Toxic” throughout.

For the compound `CC1N[C@@]2(C(=O)c3cccc4cccc2c34)[C@@]2(CCC/C(=C\c3ccc4ccccc4c3)C2=O)[C@H]1c1ccc2ccccc2c1` (some centres not stated), in the series on KGN, the result was Active. Regarding `CC1N[C@@]2(C(=O)c3cccc4cccc2c34)[C@@]2(CCC/C(=C\c3ccc(Cl)c(Br)c3)C2=O)[C@H]1c1ccc(Cl)c(Br)c1` (some centres not stated), in the series with KGN, the result was inactive. The same measure, in the same setting: next, `O=C1c2cccc3cccc(c23)[C@]12N1CCC(O)C1[C@H](c1ccccc1)[C@]21CCC/C(=C\c2ccccc2)C1=O` (some centres not stated): “Active”. Same read-out and setting: next, `O=C(O)CCC1N[C@@]2(C(=O)c3cccc4cccc2c34)[C@@]2(CCC/C(=C\c3ccccc3)C2=O)[C@H]1c1ccccc1` (some centres not stated): “inactive”; `CC1N[C@@]2(C(=O)c3cccc4cccc2c34)[C@@]2(CCC/C(=C\N3CCOCC3)C2=O)[C@H]1N1CCOCC1` (some centres not stated): “Active”. Take `CN1C[C@H](c2ccccc2)[C@]2(CCC/C(=C\c3ccccc3)C2=O)[C@]12C(=O)Nc1ccc(F)cc12`: the Activity entry (in the series with NRK; in series [1]; in series [2]) was “Non-Toxic” throughout.

Turning to `COc1ccccc1/C=C1\CCC[C@@]2(C1=O)[C@@H](c1ccccc1OC)C(C)N[C@@]21C(=O)c2cccc3cccc1c23` (some centres not stated), in the series on KGN, the outcome was inactive.

Regarding `CC1N[C@@]2(C(=O)c3cccc4cccc2c34)[C@@]2(CCC/C(=C\c3ccc(Br)cc3)C2=O)[C@H]1c1ccc(Br)cc1` (some centres not stated), the result in the series on KGN was Active. Take `CC(C)CC1N[C@@]2(C(=O)c3cccc4cccc2c34)[C@@]2(CCC/C(=C\c3ccccc3)C2=O)[C@H]1c1ccccc1` (some centres not stated): in the series on KGN, the result was inactive. Still for that read-out and setting: with `CC1N[C@@]2(C(=O)c3cccc4cccc2c34)[C@@]2(CCC/C(=C\c3cc(Br)cs3)C2=O)[C@H]1c1cc(Br)cs1` (some centres not stated) the entry was “Active”; with `Cc1ccc(/C=C2\CCC[C@@]3(C2=O)[C@@H](c2ccc(C)s2)C(C)N[C@@]32C(=O)c3cccc4cccc2c34)s1` (some centres not stated), “Active”; with `COc1ccc(/C=C2\CCC[C@@]3(C2=O)[C@@H](c2ccc(OC)c(O)c2)C(C)N[C@@]32C(=O)c3cccc4cccc2c34)cc1O` (some centres not stated), “inactive”. On the same count and under the same terms, with `CC1N[C@@]2(C(=O)c3cccc4cccc2c34)[C@@]2(CCC/C(=C\c3ccccc3Br)C2=O)[C@H]1c1ccccc1Br` (some centres not stated) the entry was “Active”. Still for that read-out and setting: next, `CC1N[C@@]2(C(=O)c3cccc4cccc2c34)[C@@]2(CCC/C(=C\c3ccc(Br)o3)C2=O)[C@H]1c1ccc(Br)o1` (some centres not stated): “Active”; `O=C1c2cccc3cccc(c23)[C@]12NC(CO)[C@H](c1ccccc1)[C@]21CCC/C(=C\c2ccccc2)C1=O` (some centres not stated): “Active”. Turning to `CN1C[C@H](c2ccccc2)[C@]2(COC/C(=C\c3ccccc3)C2=O)[C@]12C(=O)Nc1ccc(F)cc12`, the Activity entry (in the series with NRK; in series [1]; in series [2]) was “Non-Toxic” in each case. Take `O=C1c2cccc3cccc(c23)[C@]12NC(Cc1c[nH]c3ccccc13)[C@H](c1ccccc1)[C@]21CCC/C(=C\c2ccccc2)C1=O` (some centres not stated): the outcome in the series with KGN was Active. Still for that read-out and setting: with `COc1ccc(/C=C2\CCC[C@@]3(C2=O)[C@@H](c2ccc(OC)cc2OC)C(C)N[C@@]32C(=O)c3cccc4cccc2c34)c(OC)c1` (some centres not stated) the entry was “inactive”; with `CC1N[C@@]2(C(=O)c3cccc4cccc2c34)[C@@]2(CCC/C(=C\c3ccccc3Cl)C2=O)[C@H]1c1ccccc1Cl` (some centres not stated), “Active”. In the case of `CN1C[C@H](c2ccccc2)[C@H](C(=O)/C=C/c2ccccc2)[C@]12C(=O)Nc1ccccc12`, the Activity entry (with NRK; in series [1]; in series [2]) was “Toxic” each time.

On to `CCC(C)C1N[C@@]2(C(=O)c3cccc4cccc2c34)[C@@]2(CCC/C(=C\c3ccccc3)C2=O)[C@H]1c1ccccc1` (some centres not stated), for which the outcome in the series with KGN was inactive. Same read-out and setting: with `CC1N[C@@]2(C(=O)c3cccc4cccc2c34)[C@@]2(CCC/C(=C\c3ccc(Cl)cc3)C2=O)[C@H]1c1ccc(Cl)cc1` (some centres not stated) the entry was “Active”. Same read-out and setting: next, `CC1N[C@@]2(C(=O)c3cccc4cccc2c34)[C@@]2(CCC/C(=C\c3ccc(O)c(O)c3)C2=O)[C@H]1c1ccc(O)c(O)c1` (some centres not stated): “inactive”; `CC1N[C@@]2(C(=O)c3cccc4cccc2c34)[C@@]2(CCC/C(=C\c3ccccc3C(F)(F)F)C2=O)[C@H]1c1ccccc1C(F)(F)F` (some centres not stated): “inactive”; `CSCCC1N[C@@]2(C(=O)c3cccc4cccc2c34)[C@@]2(CCC/C(=C\c3ccccc3)C2=O)[C@H]1c1ccccc1` (some centres not stated): “inactive”. For the compound `CN1C[C@H](c2ccccc2)[C@]2(CN(C(=O)OC(C)(C)C)C/C(=C\c3ccccc3)C2=O)[C@]12C(=O)Nc1ccccc12`, the Activity entry (in the series with NRK; in series [1]; in series [2]) was “Non-Toxic” each time. As for `CCOc1ccc(/C=C2\CCC[C@@]3(C2=O)[C@@H](c2ccc(OCC)cc2)C(C)N[C@@]32C(=O)c3cccc4cccc2c34)cc1` (some centres not stated), in the series with KGN, the outcome was inactive. In the case of `CN1C[C@H](c2ccccc2)[C@]2(CN(C(=O)OC(C)(C)C)C/C(=C\c3ccccc3)C2=O)[C@]12C(=O)Nc1ccc(F)cc12`, the Activity entry (in the series with NRK; in series [1]; in series [2]) was “Non-Toxic” in each case.

Regarding `CCOc1ccc(/C=C2\CCC[C@@]3(C2=O)[C@@H](c2ccc(OCC)c(OCC)c2)C(C)N[C@@]32C(=O)c3cccc4cccc2c34)cc1OCC` (some centres not stated), the result in the series on KGN was inactive.

As for `NC(=O)CC1N[C@@]2(C(=O)c3cccc4cccc2c34)[C@@]2(CCC/C(=C\c3ccccc3)C2=O)[C@H]1c1ccccc1` (some centres not stated), in the series on KGN, the outcome was Active.

Take `CC1N[C@@]2(C(=O)c3cccc4cccc2c34)[C@@]2(CCC/C(=C\c3cccc(O)c3)C2=O)[C@H]1c1cccc(O)c1` (some centres not stated): the outcome with KGN was inactive.
